# Test results from publication PMC10630888, “Nuclear ERK1/2 signaling potentiation enhances neuroprotection and cognition via Importinα1/KPNA2” (EMBO Molecular Medicine, 2023).
# Values joined by “and” are separate entries in the source; they are usually repeats but may differ in a detail not shown here. Equal entries are not always repeated.
# Columns and labels:
# [1] = system: p-ERK1/2 in CTIP2+ neurons; experiment: p-ERK1/2 in CTIP2+ iPSC-derived HD MSNs; format: cell-based, human; conditions: for p-ERK1/2 in CTIP2+ neurons (Fig 5 panel f): individual replicates
# Experimental: The human induced pluripotent stem cell line CS09iHD109‐n1 (herein referred to as Q109N1) was originally generated from a human fibroblast line ND39258 (RRID:CVCL_ZC78) with an expanded HTT allele initially containing 109 pure CAG trinucleotides, and the isogenic control lines used were derived by CRISPR gene‐edit to reduce the CAG repeat length to 20 repeats (Mattis et al, [2015]). IPSCS were cultured on hESC‐qualified Matrigel (Corning) in E8‐Flex medium (Thermo Fisher) and passaged with RelesR (Stem Cell Technologies) according to the manufacturer's instructions. For neural differentiation iPSCS were grown to 70% confluency and then treated with 10 μM Y‐27632 (Tocris) for 1 h before harvesting by dissociation to a single cell suspension using accutase (Sigma). IPSCs were replated onto fresh Matrigel‐coated plates at a split ratio of 1:2, in E8‐Flex medium containing 10 μM Y‐27632. After overnight culture, IPSCs at 80–90% confluency were washed with PBS pH 7.4 (Gibco) and then switched to neural induction medium (Advanced DMEM/F12 (1:1) supplemented with 2 mM GlutamaxTM (Gibco), 2% Neurobrew without vitamin A (Miltenyi), 10 μM SB431542, 1 μM LDN 193189 (both Stem Cell Technologies), and 1.5 μM IWR1 (Tocris)). Medium was changed daily until day 8, when cells were passaged 1:2 by cell dissociation with Accutase for 5 min at 37°C and replated on Matrigel® coated plates in LIA medium containing (Advanced DMEM/F12 (1:1) supplemented with 2 mM GlutamaxTM, 2% Neurobrew without vitamin A, 0.2 μM LDN 193189, 1.5 μM IWR1, and 20 ng/ml Activin A (Peprotech)). At day 16, cells were plated for neuronal differentiation according to (Telezhkin et al, [2016]). […]
# Images were acquired using a confocal microscope (Zeiss LSM710) under a 20× objective and analyzed with ImageJ software.
# [2] = system: tyrosine hydroxylase (TH) positive cells of the SNc; experiment: TH-positive cells in SNc, MPTP model; format: in vivo, mouse
# Experimental: Immunohistochemistry was performed as described in Papale et al ([2016]). […]
# For in vivo immunohistochemistry experiments, images were acquired from the dorsal striatum using a Leica DM IRB microscope under a 20× objective. The number of p‐ERK, p‐MSK‐1, p‐ELK, p‐MEK‐1, p‐VG K+, c‐Fos, and DARPP‐32 positive cells was counted in 2–3 consecutive sections per mouse, bilaterally and averaged across the sections using the ImageJ software by a blind investigator to the condition. Estimation of nigral cell loss was assessed by quantifying the number of TH‐immunopositive neurons of the SNc in 360 μm‐spaced sections for each animal. […]
# Immuno‐labeled sections were visualized under a Leica DM/RBE light microscope and an Olympus BX50 light microscope with Visiopharm Integrator System software (version 4.4.6.9). TH‐positive cells were counted at 200‐μm intervals. The total number of cells (C) for each animal was calculated using the following formula: C = ∑c × (∑A/∑a) × f, where c is the number of cells in each sampling frame, A is the inclusion area for each section, a is the area of the sampling frame for each animal, and f is the frequency of sectioning.
sequence,measurement,setting,value
"GRKKRRQRRRPPQGGGGGEPRRTEGVGPGVPGEVEMVKGQPFDV [RB5, six D-amino acids, acetylated N-terminus]",p-ERK1/2 in CTIP2+ neurons (Fig 5 panel f),[1]; CTR iPSC-derived MSNs,40.5874 and 43.5065 and 59.0476 and 55.7538 and 63.8384 and 58.6194
same,p-ERK1/2 in CTIP2+ neurons,"[1]; HD and isogenic control iPSC-derived MSNs, 50 μM, 30 min",induced ERK activation
same,p-ERK1/2 in CTIP2+ neurons (Fig 5 panel f),[1]; HD iPSC-derived MSNs,50.2062 and 59.3301 and 53.5036 and 55.8187 and 47.3002 and 65.1771
same,Tyrosine hydroxylase (TH) loss in SNc,[2]; MPTP 20 mg/kg i.p. and RB5 20 mg/kg i.p. for 4 days,prevented tyrosine hydroxylase (TH) loss
same,TH-positive cells in SNc (Fig 5 panel g),"[2]; MPTP model, individual animals",3818.38 and 2495.7 and 4195.82 and 2081.4 and 2629.68 and 4880.04 and 2139.82 and 2203.06 and 3349.83 and 3862.19 and 2316.4 and 3288.79 and 3386.28
